Reference: US20220411439A1, “POLYMORPHS OF A MACROCYCLIC KINASE INHIBITOR” (TURNING POINT THERAPEUTICS, INC., priority 2019, published 2022)
Read-outs that look alike come from different tables or passages of the source.

Key:
RET (S891A) = target: T1, RET (S891A) (Homo sapiens, UniProt P07949, S891A); assay: Biochemical kinase assay; conditions: 10 μM ATP
T1 construct: purchased Reaction Biology Corporation (contract assay)
Protocol: (§1) The biochemical kinase assay was performed at Reaction Biology Corporation (www.reactionbiology.com, Malvern, Pa.) following the procedures described in the reference (Anastassiadis T, et al Nat Biotechnol. 2011, 29, 1039). Specific kinase/substrate pairs along with required cofactors were prepared in reaction buffer; 20 mM Hepes pH 7.5, 10 mM MgCl2, 1 mM EGTA, 0.02% Brij35, 0.02 mg/ml BSA, 0.1 mM Na3VO4, 2 mM DTT, 1% DMSO. Compounds were delivered into the reaction, followed ˜20 minutes later by addition of a mixture of ATP (Sigma, St. Louis Mo.) and ^33P ATP (Perkin Elmer, Waltham Mass.) to a final concentration of 10 μM. Reactions were carried out at room temperature for 120 min, followed by spotting of the reactions onto P81 ion exchange filter paper (Whatman Inc., Piscataway, N.J.). Unbound phosphate was removed by extensive washing of filters in 0.75% phosphoric acid. […] IC50 values and curve fits were obtained using Prism (GraphPad Software).

TT cell (RET M918T) = assay: Cell proliferation assay (CellTiter-Glo); format: cell-based; conditions: Homo sapiens, anti-cell proliferation, 72 hours
Protocol: (§2) Human medulla thyroid carcinoma cell line TT (containing RET M918T mutation) and acute myelogenous cell line KG-1 were purchased from ATCC. Human colon cancer cell line KM12 (containing TPM3-TRKA) was obtained from NCI. Two thousand cells per well were seeded in 384 well white plate for 24 hrs, and then treated with compounds for 72 hours (37° C., 5% CO2). Cell proliferation was measured using CellTiter-Glo luciferase-based ATP detection assay (Promega) following the manufactures's protocol. IC50 determinations were performed using GraphPad Prism software (GraphPad, Inc., San Diego, Calif.).

KG-1 = assay: Cell proliferation assay (CellTiter-Glo); format: cell-based; conditions: Homo sapiens, anti-cell proliferation, 72 hours
Protocol: as §2

KM12 cell (TPM3-TRKA) = assay: Cell proliferation assay (CellTiter-Glo); format: cell-based; conditions: Homo sapiens, anti-cell proliferation, 72 hours
Protocol: as §2

Ba/F3 KIF5B-RET = target: T2, Ba/F3 KIF5B-RET (Homo sapiens, UniProt P07949, cells depend on it, form not given); assay: Compound I anti-cell proliferation comparison (FIG. 5A, 5B); format: cell-based; conditions: for GI50: read-out: IC50 (the source's name)
T2 construct: IC50 (nM); other: Experiment 1; other: Experiment 2; fused on or other part: P33176 (Kinesin-1 heavy chain)
Description: The KIF5B-RET gene was synthesized at GenScript and cloned into pCDH-CMV-MCS-EF1-Puro plasmid (System Biosciences, Inc). KIF5B-RET point mutation V804M and G810C were generated at GenScript by PCR and confirmed by sequencing. Ba/F3-KIF5B-RET wild type and mutant were generated by transducing Ba/F3 cells with lentivirus containing KIF5B-RET wide type or mutant. Stable cell lines were selected by puromycin treatment, followed by IL-3 withdrawal. Briefly, 5×10^6 Ba/F3 cells were transduced with lentivirus supernatant in the presence of 8 μg/mL protamine sulfate. The transduced cells were subsequently selected with 1 μg/mL puromycin in the presence of IL3-containing medium RPMI1640, plus 10% FBS. After 10-12 days of selection, the surviving cells were further selected for […] independent growth.
(§3) Two thousand cells per well were seeded in 384 well white plate for 24 hrs, and then treated with compounds for 72 hours (37° C., 5% CO2). Cell proliferation was measured using CellTiter-Glo luciferase-based ATP detection assay (Promega) following the manufactures's protocol. IC50 determinations were performed using GraphPad Prism software (GraphPad, Inc., San Diego, Calif.).

Ba/F3 EML4-ALK = target: T3, Ba/F3 EML4-ALK (Homo sapiens, UniProt Q9UM73); assay: Cell proliferation assay (CellTiter-Glo); format: cell-based; conditions: anti-cell proliferation, 72 hours
T3 construct: fused on or other part: Q9HC35 (Echinoderm microtubule-associated protein-like 4)
Protocol: The EML4-ALK gene (variant 1) was synthesized at GenScript and cloned into pCDH-CMV-MCS-EF1-Puro plasmid (System Biosciences, Inc). Ba/F3-EML4-ALK wild type were generated by transducing Ba/F3 cells with lentivirus containing EML4-ALK wide type. Stable cell lines were selected by puromycin treatment, followed by IL-3 withdrawal. Briefly, 5×10^6 Ba/F3 cells were transduced with lentivirus supernatant in the presence of 8 μg/mL protamine sulfate. The transduced cells were subsequently selected with 1 μg/mL puromycin in the presence of IL3-containing medium RPMI1640, plus 10% FBS. After 10-12 days of selection, the surviving cells were further selected for IL3 independent growth.
as §3

RET-NCOA4 (PTC3) = target: T4, RET-NCOA4 (PTC3) (Homo sapiens, UniProt P07949); assay: Biochemical kinase assay; conditions: 10 μM ATP
T4 construct: NCOA4 fragment (fusion partner); purchased Reaction Biology Corporation (contract assay)
Protocol: as §1, with “Specific” for “The biochemical kinase assay was performed at Reaction Biology Corporation (www.reactionbiology.com, Malvern, Pa.) following the procedures described in the reference (Anastassiadis T, et al Nat Biotechnol. 2011, 29, 1039). Specific”

YES/YES1 = target: T5, YES/YES1 (Homo sapiens, UniProt P07947); assay: Biochemical kinase assay; conditions: 10 μM ATP
T5 construct: purchased Reaction Biology Corporation (contract assay)
Protocol: as §1, with “Specific” for “The biochemical kinase assay was performed at Reaction Biology Corporation (www.reactionbiology.com, Malvern, Pa.) following the procedures described in the reference (Anastassiadis T, et al Nat Biotechnol. 2011, 29, 1039). Specific”

LYN = target: T6, LYN (Homo sapiens, UniProt P07948); assay: Biochemical kinase assay; conditions: 10 μM ATP
T6 construct: purchased Reaction Biology Corporation (contract assay)
Protocol: as §1, with “Specific” for “The biochemical kinase assay was performed at Reaction Biology Corporation (www.reactionbiology.com, Malvern, Pa.) following the procedures described in the reference (Anastassiadis T, et al Nat Biotechnol. 2011, 29, 1039). Specific”

RET = target: T7, RET (Homo sapiens, UniProt P07949); assay: Biochemical kinase assay; conditions: 10 μM ATP
T7 construct: purchased Reaction Biology Corporation (contract assay)
Protocol: as §1, with “Specific” for “The biochemical kinase assay was performed at Reaction Biology Corporation (www.reactionbiology.com, Malvern, Pa.) following the procedures described in the reference (Anastassiadis T, et al Nat Biotechnol. 2011, 29, 1039). Specific”

SRC = target: T8, SRC (Homo sapiens, UniProt P12931); assay: Biochemical kinase assay; conditions: 10 μM ATP
T8 construct: purchased Reaction Biology Corporation (contract assay)
Protocol: as §1, with “Specific” for “The biochemical kinase assay was performed at Reaction Biology Corporation (www.reactionbiology.com, Malvern, Pa.) following the procedures described in the reference (Anastassiadis T, et al Nat Biotechnol. 2011, 29, 1039). Specific”

FYN = target: T9, FYN (Homo sapiens, UniProt P06241); assay: Biochemical kinase assay; conditions: 10 μM ATP
T9 construct: purchased Reaction Biology Corporation (contract assay)
Protocol: as §1, with “Specific” for “The biochemical kinase assay was performed at Reaction Biology Corporation (www.reactionbiology.com, Malvern, Pa.) following the procedures described in the reference (Anastassiadis T, et al Nat Biotechnol. 2011, 29, 1039). Specific”

HCK = target: T10, HCK (Homo sapiens, UniProt P08631); assay: Biochemical kinase assay; conditions: 10 μM ATP
T10 construct: purchased Reaction Biology Corporation (contract assay)
Protocol: as §1, with “Specific” for “The biochemical kinase assay was performed at Reaction Biology Corporation (www.reactionbiology.com, Malvern, Pa.) following the procedures described in the reference (Anastassiadis T, et al Nat Biotechnol. 2011, 29, 1039). Specific”

Ba/F3 KIF5B-RET G810C = target: T11, Ba/F3 KIF5B-RET G810C (Homo sapiens, UniProt P07949, G810C); assay: RET-G810C autophosphorylation (Y905) by immunoblotting in Ba/F3 engineered cells; format: cell-based; conditions: 4 hours incubation, read-out: IC50, RET-G810C phosphorylation at residue Y905
T11 construct: KIF5B fragment (fusion partner); expressed in transfected cells; host or cells: Ba/F3 cells, lentiviral transduction (pCDH-CMV-MCS-EF1-Puro); the other entry of the earlier key: KIF5B (P33176, Kinesin-1 heavy chain)
T11 sequence (P07949 713-1063 G810C limits assumed): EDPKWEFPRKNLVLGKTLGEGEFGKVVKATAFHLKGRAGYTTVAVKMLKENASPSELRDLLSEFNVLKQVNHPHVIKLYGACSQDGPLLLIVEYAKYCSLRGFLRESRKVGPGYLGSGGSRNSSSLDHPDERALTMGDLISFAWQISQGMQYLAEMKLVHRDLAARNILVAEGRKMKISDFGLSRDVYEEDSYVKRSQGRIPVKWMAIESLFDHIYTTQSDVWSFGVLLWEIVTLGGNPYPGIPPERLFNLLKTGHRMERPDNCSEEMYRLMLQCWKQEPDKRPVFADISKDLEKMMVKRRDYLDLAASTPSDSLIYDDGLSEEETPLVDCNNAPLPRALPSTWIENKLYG

T2 sequence (P07949 whole entry G810C, form open, the tested form may be a part): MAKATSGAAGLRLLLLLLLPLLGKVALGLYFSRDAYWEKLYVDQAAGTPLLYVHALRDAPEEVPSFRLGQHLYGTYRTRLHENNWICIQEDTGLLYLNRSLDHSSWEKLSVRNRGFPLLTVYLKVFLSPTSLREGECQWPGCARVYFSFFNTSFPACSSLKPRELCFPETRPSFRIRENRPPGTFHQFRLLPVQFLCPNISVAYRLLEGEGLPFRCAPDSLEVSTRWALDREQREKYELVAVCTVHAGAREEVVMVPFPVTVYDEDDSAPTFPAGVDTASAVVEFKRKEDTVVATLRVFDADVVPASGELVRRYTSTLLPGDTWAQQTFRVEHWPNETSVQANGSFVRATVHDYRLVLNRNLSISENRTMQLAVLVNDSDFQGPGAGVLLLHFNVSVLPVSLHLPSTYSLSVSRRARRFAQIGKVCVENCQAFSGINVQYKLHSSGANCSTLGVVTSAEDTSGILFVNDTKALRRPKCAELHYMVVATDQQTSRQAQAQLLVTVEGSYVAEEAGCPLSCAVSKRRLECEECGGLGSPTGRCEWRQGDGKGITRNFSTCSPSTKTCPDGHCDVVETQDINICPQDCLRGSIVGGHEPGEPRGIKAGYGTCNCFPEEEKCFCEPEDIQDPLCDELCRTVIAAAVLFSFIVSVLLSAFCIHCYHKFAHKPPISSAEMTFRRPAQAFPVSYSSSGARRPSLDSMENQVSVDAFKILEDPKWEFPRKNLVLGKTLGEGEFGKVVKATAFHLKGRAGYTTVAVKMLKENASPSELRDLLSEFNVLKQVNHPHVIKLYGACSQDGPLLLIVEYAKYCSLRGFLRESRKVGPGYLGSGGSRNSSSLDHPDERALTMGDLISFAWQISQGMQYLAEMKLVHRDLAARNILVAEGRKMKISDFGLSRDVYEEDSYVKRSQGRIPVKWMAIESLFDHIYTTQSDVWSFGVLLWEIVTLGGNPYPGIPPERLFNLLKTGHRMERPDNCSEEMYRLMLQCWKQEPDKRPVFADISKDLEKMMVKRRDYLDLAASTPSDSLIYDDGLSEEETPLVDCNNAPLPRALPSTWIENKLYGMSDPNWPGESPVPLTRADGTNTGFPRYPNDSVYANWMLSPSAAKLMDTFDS
T9 sequence (P06241 whole entry): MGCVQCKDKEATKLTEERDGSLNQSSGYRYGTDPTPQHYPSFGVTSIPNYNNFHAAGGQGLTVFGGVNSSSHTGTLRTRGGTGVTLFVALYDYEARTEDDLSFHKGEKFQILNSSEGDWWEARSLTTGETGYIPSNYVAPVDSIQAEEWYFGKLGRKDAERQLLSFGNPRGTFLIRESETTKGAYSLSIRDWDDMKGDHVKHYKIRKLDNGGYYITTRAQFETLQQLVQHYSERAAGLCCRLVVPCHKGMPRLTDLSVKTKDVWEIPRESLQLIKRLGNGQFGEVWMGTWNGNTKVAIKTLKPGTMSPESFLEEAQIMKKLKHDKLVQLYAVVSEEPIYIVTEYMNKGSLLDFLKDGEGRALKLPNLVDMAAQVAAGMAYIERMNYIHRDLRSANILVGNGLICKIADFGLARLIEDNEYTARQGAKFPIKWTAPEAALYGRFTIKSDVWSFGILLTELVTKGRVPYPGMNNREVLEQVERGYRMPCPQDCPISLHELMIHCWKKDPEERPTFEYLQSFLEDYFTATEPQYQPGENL
T8 sequence (P12931 whole entry): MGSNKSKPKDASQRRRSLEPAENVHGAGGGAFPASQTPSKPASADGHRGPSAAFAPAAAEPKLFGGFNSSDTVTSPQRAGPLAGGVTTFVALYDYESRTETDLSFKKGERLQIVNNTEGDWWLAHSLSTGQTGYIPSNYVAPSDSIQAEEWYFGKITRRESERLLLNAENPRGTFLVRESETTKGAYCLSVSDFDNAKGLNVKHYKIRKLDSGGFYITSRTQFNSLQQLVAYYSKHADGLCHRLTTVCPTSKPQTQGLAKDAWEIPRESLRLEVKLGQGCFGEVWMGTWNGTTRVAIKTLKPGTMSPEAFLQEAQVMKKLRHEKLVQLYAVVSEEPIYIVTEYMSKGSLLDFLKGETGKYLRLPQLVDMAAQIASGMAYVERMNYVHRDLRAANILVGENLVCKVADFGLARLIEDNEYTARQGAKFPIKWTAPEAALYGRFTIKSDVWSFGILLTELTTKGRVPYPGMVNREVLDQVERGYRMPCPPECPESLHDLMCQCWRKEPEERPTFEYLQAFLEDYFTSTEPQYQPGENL
T7 sequence (P07949 29-1114): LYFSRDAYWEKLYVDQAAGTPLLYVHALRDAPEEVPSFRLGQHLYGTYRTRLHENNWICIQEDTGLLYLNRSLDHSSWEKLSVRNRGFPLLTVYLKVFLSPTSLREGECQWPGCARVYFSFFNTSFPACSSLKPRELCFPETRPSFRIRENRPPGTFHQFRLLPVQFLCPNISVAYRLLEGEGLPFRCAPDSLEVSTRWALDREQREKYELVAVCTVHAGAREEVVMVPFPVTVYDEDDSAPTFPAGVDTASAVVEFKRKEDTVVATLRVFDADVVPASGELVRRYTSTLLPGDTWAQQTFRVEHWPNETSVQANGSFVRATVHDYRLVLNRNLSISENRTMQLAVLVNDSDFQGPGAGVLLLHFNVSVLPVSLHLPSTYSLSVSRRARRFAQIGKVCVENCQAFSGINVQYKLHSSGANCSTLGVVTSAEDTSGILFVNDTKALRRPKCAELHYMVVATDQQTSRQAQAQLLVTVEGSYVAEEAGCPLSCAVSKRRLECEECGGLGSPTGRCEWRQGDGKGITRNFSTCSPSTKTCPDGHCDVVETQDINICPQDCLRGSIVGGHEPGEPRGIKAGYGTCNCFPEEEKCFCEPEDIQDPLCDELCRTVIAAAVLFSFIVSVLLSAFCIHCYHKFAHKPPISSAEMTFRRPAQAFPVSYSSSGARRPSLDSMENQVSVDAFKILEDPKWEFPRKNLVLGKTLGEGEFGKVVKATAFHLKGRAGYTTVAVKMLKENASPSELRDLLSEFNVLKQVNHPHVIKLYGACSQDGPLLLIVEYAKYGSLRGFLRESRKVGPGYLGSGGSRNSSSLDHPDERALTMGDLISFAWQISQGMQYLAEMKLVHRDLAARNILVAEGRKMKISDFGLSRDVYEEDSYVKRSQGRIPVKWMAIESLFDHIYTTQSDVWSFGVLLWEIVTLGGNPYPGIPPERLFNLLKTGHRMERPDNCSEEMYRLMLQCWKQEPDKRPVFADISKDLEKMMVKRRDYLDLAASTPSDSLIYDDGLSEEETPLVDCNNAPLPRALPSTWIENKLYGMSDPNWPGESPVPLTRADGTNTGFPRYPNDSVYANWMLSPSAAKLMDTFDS
T6 sequence (P07948 whole entry): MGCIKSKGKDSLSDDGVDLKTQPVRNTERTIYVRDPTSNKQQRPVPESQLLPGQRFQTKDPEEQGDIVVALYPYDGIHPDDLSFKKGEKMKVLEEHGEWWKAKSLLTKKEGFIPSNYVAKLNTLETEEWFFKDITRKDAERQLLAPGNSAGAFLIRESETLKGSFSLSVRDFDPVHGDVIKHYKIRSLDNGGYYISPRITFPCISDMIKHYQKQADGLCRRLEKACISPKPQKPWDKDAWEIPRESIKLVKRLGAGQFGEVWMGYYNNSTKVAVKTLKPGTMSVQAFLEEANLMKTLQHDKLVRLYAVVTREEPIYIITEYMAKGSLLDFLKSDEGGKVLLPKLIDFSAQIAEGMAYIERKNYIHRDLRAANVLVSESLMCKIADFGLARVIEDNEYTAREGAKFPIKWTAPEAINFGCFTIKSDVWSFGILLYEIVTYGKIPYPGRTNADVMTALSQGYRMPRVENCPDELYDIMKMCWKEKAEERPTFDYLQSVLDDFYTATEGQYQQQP
T1 sequence (P07949 29-1114 S891A): as the sequence (P07949 29-1114) above, with S863A counted along it
T4 sequence (P07949 with tags, fused parts or gaps): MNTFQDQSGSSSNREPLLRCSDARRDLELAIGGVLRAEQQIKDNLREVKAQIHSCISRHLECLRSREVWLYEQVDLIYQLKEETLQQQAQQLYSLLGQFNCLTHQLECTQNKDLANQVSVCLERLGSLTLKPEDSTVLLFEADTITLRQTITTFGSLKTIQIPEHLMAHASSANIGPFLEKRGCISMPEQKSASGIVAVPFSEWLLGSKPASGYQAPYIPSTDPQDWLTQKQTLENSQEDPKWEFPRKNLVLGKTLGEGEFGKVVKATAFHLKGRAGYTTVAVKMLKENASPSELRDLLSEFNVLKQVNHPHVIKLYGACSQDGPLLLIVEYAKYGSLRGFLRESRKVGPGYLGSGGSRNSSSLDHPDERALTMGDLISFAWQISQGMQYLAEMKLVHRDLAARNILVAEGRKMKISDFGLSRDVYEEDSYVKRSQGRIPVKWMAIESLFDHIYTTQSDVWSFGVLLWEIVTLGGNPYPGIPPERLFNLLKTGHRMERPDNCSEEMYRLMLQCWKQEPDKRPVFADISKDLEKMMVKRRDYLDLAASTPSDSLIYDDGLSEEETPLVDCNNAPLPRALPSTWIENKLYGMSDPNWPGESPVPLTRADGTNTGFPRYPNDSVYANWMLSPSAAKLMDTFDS

IC50 (RET (S891A)): 0.2 nM | IC75 (Ba/F3 KIF5B-RET; Experiment 1): 28.8 nM | IC90 (Ba/F3 KIF5B-RET; Experiment 1): 86.4 nM | GI50 (Ba/F3 KIF5B-RET; Experiment 1): 9.6 nM | IC75 (Ba/F3 KIF5B-RET; Experiment 2): 39.9 nM | IC90 (Ba/F3 KIF5B-RET; Experiment 2): 120 nM | GI50 (Ba/F3 KIF5B-RET; Experiment 2): 13.3 nM | GI50 (Ba/F3 EML4-ALK): 211 nM | IC50 (RET-NCOA4 (PTC3)): 0.7 nM | IC50 (YES/YES1): 2.6 nM | IC50 (LYN): 2 nM | IC50 (RET): 1 nM | IC50 (SRC): 1.5 nM | IC50 (FYN): 1.9 nM | IC50 (HCK): 2.7 nM | IC50 (Ba/F3 KIF5B-RET G810C): 1 to 3 nM
SMILES: C[C@H]1CNC(=O)c2cnn3cc4c(nc23)N(Cc2cc(F)cnc2O1)[C@@H]1CCC[C@@H]1O4 [Compound I, (3aR,11S,20aS)-7-fluoro-11-methyl-2,3,3a,12,13,20a-hexahydro-1H,5H-17,19-(metheno)cyclopenta[5,6][1,4]oxazino[3,4-i]pyrazolo[4,3-f]pyrido[3,2-l][1,4,8,10]oxatriazacyclotridecin-14(11H)-one]
IC50 (TT cell (RET M918T)): < 0.5 nM | IC50 (KG-1): 131 nM | IC50 (KM12 cell (TPM3-TRKA)): 3 nM
